Legend:
Assay type in all cases: biochemical
E. coli gyrase GyrA^S83L = biological target: T1, E. coli gyrase GyrA^S83L (Escherichia coli, UniProt P0AES4+P0AES6, S83L); experiment: DNA gyrase cleavage assay (CC50, % cleaved DNA); conditions: for % maximal cleavage: GyrAS83L, average of 3 independent assays; for EC50: GyrA^S83L, mean ± s.d. of triplicate; for % cleaved DNA Average: average of replicates
T1 construct: alternative cryo-EM approach involving full-length E. coli gyrase; 10-His (cleaved yes); Twin-Strep (cleaved yes); made in house
Protocol: (§1) For DNA gyrase supercoiling assays to characterize gyrase mutants, 15 µl reactions were set up containing 250 ng of relaxed DNA, E. coli gyrase supercoiling buffer (35 mM Tris–Cl pH 7.5, 24 mM KCl, 4 mM MgCl2, 2 mM DTT, 1.8 mM spermidine, 1 mM ATP, 6.0% (w/v) glycerol, and 0.1 mg ml^−1 BSA), gyrase subunits and inhibitors. Concentrations of enzyme and inhibitor are stated in the figure legends. Inhibitors were diluted in the following way to reduce the chance of precipitation: stock compound in 100% DMSO was diluted to 5 mM in 100% DMSO. This compound solution was diluted to 1 mM by stepwise addition of 1 µl of 50% DMSO with thorough mixing via pipetting after each addition. All subsequent dilutions up to 100 µM were performed in the same way using H2O. After this point, compounds were stable and could be diluted in the normal way. Reactions were incubated at 37 °C for 30 min before stopping with 15 µl chloroform:isoamyl alcohol (24:1 v/v) and 15 µl of STEB (40% (w/v) sucrose, 100 mM Tris–Cl pH 8, 10 mM EDTA, 0.5 mg ml^−1 bromophenol blue).
(§2) Cleavage assays were set up in the same way as supercoiling assays with some modifications. The concentration of enzyme was increased 4-fold relative to the supercoiling assay and reactions were incubated for 1 h before addition of 0.2% SDS and proteinase K (0.2 mg ml^−1) and further incubation at 37 °C for 30 min to trap cleavage complexes. Reactions were stopped in the same way as supercoiling assays.
(§3) Results were visualized by agarose gel electrophoresis: 1% agarose Tris-acetate-EDTA (TAE) gels were run without ethidium bromide (supercoiling) or with 10 µg ml^−1 ethidium bromide (cleavage) at 8 V cm^−1.
(§4) DNA cleavage gels were analysed using densitometry (ImageJ). Experiments were carried out in triplicate and expressed as mean ± s.d. Curves were fitted using OriginPro 2021 (Origin Lab) according to a modified Hill equation:1 y=cI+(cF−cI)[…]/(k^n+x^n) where y is the percentage of cleaved DNA, cI is the initial cleavage, cF is the final cleavage, k is the CC50 (the concentration of inhibitor that results in cleavage of 50% of DNA), n is a slope factor and x is the inhibitor concentration.

[1] = biological target: T2, E. coli gyrase GyrA^M120A (Escherichia coli, UniProt P0AES4+P0AES6, M120A); experiment: DNA gyrase cleavage assay (CC50, % cleaved DNA); conditions: for % maximal cleavage: GyrAM120A, average of 3 independent assays; for EC50: GyrA^M120A, mean ± s.d. of triplicate; for % cleaved DNA Average: average of replicates
T2 construct: alternative cryo-EM approach involving full-length E. coli gyrase; 10-His (cleaved yes); Twin-Strep (cleaved yes); made in house
Protocol: as §1, §2, §3, §4

[2] = biological target: T3, E. coli gyrase GyrB^K447W (Escherichia coli, UniProt P0AES4+P0AES6, K447W); experiment: DNA gyrase cleavage assay (CC50, % cleaved DNA); conditions: for % maximal cleavage: GyrBK447W, average of 3 independent assays; for increase in CC50: 60 min; for EC50: GyrB^K447W, mean ± s.d. of triplicate
T3 construct: alternative cryo-EM approach involving full-length E. coli gyrase; 10-His (cleaved yes); Twin-Strep (cleaved yes); made in house
Protocol: as §1, §2, §3, §4

E. coli gyrase GyrA^V70A = biological target: T4, E. coli gyrase GyrA^V70A (Escherichia coli, UniProt P0AES4+P0AES6, V70A); experiment: DNA gyrase cleavage assay (CC50, % cleaved DNA); conditions: for % maximal cleavage: GyrAV70A, average of 3 independent assays; for EC50: GyrA^V70A; for % cleaved DNA Average: average of replicates
T4 construct: alternative cryo-EM approach involving full-length E. coli gyrase; 10-His (cleaved yes); Twin-Strep (cleaved yes); made in house
Protocol: as §1, §2, §3, §4

E. coli gyrase GyrA^A67Q = biological target: T5, E. coli gyrase GyrA^A67Q (Escherichia coli, UniProt P0AES4+P0AES6, A67Q); experiment: DNA gyrase cleavage assay (CC50, % cleaved DNA); conditions: for % maximal cleavage: GyrAA67Q, average of 3 independent assays; for EC50: GyrA^A67Q, mean ± s.d. of triplicate; for % cleaved DNA Average: average of replicates
T5 construct: alternative cryo-EM approach involving full-length E. coli gyrase; 10-His (cleaved yes); Twin-Strep (cleaved yes); made in house
Protocol: as §1, §2, §3, §4

E. coli Topo IV = E. coli Topo IV (Escherichia coli, UniProt P0AFI2+P20083); experiment: E. coli Topo IV relaxation assay; conditions: tested 0.1, 1, 10, 100 µM
Protocol: E. coli Topo IV relaxation assays were set up in the same way as supercoiling assays with some modifications. The substrate was negatively supercoiled DNA, E. coli Topo IV relaxation buffer (50 mM K-HEPES pH 7.6, 100 mM potassium glutamate, 10 mM magnesium acetate, 10 mM DTT, 1 mM ATP and 0.05 mg ml^−1 BSA) and reactions were incubated for 1 h. Reactions were stopped in the same way as supercoiling assays.
as §3
Supplementary Figure 11. Activity of albicidin and Albi-1/2/3 on E. coli topoisomerase IV. a. Plasmid relaxation activity of E. coli topo IV in the presence of albicidin, Albi-1, Albi-2 and Albi-3. First lane: negatively supercoiled pBR322; second lane: innate relaxation activity of E. coli topo IV (12.5 nM); third lane: effect of 20 µM CFX; subsequent lanes: effect of increasing compound concentration (0.1, 1, 10, 100 […]
higher concentration. b. Cleavage activity of E. coli topo IV in the presence of albicidin, Albi-1, Albi-2 and Albi-3. First lane: negatively supercoiled pBR322; second lane: innate cleavage activity of E. coli topo IV (15 nM); third lane: effect of 20 µM CFX; subsequent lanes: effect of increasing compound concentration (0.1, 1, 10, 100 µM). […]
concentration. All experiments were carried out in triplicates and representative gels […]
(1 picture or pasted object on this page, not shown here)

Chain of E. coli Topo IV (P0AFI2 whole entry): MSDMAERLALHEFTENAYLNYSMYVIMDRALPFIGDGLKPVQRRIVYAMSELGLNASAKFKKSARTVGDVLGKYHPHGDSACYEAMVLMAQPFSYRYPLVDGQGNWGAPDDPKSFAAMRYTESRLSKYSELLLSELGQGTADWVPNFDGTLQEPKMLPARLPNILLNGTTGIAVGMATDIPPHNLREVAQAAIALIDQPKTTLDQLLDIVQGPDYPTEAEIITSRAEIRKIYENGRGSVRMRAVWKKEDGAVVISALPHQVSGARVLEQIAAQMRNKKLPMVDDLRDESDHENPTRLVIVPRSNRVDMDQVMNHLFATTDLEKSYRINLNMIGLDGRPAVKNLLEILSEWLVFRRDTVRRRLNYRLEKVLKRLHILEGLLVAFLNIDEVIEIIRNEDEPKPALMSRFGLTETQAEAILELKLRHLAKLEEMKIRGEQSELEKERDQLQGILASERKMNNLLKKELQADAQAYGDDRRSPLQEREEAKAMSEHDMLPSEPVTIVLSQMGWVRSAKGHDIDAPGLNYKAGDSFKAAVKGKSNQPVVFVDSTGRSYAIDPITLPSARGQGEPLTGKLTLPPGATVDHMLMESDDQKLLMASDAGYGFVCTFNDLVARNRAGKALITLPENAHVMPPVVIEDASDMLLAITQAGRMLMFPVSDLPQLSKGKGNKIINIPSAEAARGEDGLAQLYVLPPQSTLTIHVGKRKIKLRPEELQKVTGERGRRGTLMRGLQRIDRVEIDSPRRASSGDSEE
Chain of E. coli Topo IV (P20083 whole entry): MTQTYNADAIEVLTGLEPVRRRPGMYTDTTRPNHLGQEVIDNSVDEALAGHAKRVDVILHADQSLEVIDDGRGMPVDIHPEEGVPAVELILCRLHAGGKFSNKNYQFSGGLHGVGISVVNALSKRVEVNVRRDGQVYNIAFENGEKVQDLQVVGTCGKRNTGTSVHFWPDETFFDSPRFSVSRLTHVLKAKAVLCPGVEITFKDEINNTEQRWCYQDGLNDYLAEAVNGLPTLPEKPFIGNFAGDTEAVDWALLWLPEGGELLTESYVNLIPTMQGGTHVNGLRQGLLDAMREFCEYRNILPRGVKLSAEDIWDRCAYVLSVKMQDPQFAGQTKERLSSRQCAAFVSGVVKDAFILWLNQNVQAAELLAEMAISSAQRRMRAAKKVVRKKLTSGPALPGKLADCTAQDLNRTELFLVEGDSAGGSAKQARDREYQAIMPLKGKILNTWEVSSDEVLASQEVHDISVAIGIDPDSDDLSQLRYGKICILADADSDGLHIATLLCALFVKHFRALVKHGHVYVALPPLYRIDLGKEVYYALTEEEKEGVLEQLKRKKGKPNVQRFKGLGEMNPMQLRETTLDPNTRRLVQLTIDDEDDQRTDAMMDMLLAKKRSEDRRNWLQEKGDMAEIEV

## COc1c(NC(=O)c2ccc(NC(=O)c3ccc(NC(=O)[C@H](CC#N)NC(=O)c4ccc(NC(=O)/C(C)=C/c5ccc(O)cc5)cc4)cc3)c(OC)c2O)ccc(C(=O)O)c1O [Albicidin]
E. coli gyrase GyrA^S83L; 1 h
  increase in CC50: 3 fold
E. coli gyrase GyrA^S83L
  % maximal cleavage: 68±5%
  EC50: 129 ± 43 nM
E. coli gyrase GyrA^S83L; albicidin 0.0025 µM
  % cleaved DNA Average: 2.652%
E. coli gyrase GyrA^S83L; albicidin 0.005 µM
  % cleaved DNA Average: 2.693%
E. coli gyrase GyrA^S83L; albicidin 0.01 µM
  % cleaved DNA Average: 2.768%
E. coli gyrase GyrA^S83L; albicidin 0.025 µM
  % cleaved DNA Average: 5.278%
E. coli gyrase GyrA^S83L; albicidin 0.05 µM
  % cleaved DNA Average: 12.476%
E. coli gyrase GyrA^S83L; albicidin 0.1 µM
  % cleaved DNA Average: 26.0782%
E. coli gyrase GyrA^S83L; albicidin 0.5 µM
  % cleaved DNA Average: 63.6873%
E. coli gyrase GyrA^S83L; albicidin 1 µM
  % cleaved DNA Average: 64.6552%
E. coli gyrase GyrA^S83L; albicidin 5 µM
  % cleaved DNA Average: 67.9433%
[1]
  % maximal cleavage: 72±3%
  EC50: 50 ± 11 nM
[1]; albicidin 0.0005 µM
  % cleaved DNA Average: 4.819%
[1]; albicidin 0.001 µM
  % cleaved DNA Average: 6.609%
[1]; albicidin 0.0025 µM
  % cleaved DNA Average: 6.667%
[1]; albicidin 0.005 µM
  % cleaved DNA Average: 6.183%
[1]; albicidin 0.01 µM
  % cleaved DNA Average: 19.8754%
[1]; albicidin 0.025 µM
  % cleaved DNA Average: 25.7528%
[1]; albicidin 0.05 µM
  % cleaved DNA Average: 41.0477%
[1]; albicidin 0.1 µM
  % cleaved DNA Average: 46.9644%
[1]; albicidin 0.5 µM
  % cleaved DNA Average: 60.6731%
[1]; albicidin 1 µM
  % cleaved DNA Average: 72.349%
[2]
  % maximal cleavage: 27±2%
  EC50: 452 ± 108 nM
[2]; GyrB^K447W vs WT gyrase
  decrease of the maximal cleavage: 3 fold
  increase in CC50: 10 fold
E. coli gyrase GyrA^V70A; 1 h
  increase in CC50: > 25 fold
E. coli gyrase GyrA^V70A
  % maximal cleavage: 80±2%
E. coli gyrase GyrA^V70A; cell prints its own unit
  EC50: 1240 nM
E. coli gyrase GyrA^V70A; albicidin 0.025 µM
  % cleaved DNA Average: 3.14%
E. coli gyrase GyrA^V70A; albicidin 0.05 µM
  % cleaved DNA Average: 4.791%
E. coli gyrase GyrA^V70A; albicidin 0.1 µM
  % cleaved DNA Average: 4.574%
E. coli gyrase GyrA^V70A; albicidin 0.25 µM
  % cleaved DNA Average: 12.5575%
E. coli gyrase GyrA^V70A; albicidin 0.5 µM
  % cleaved DNA Average: 14.0393%
E. coli gyrase GyrA^V70A; albicidin 1 µM
  % cleaved DNA Average: 46.9741%
E. coli gyrase GyrA^V70A; albicidin 5 µM
  % cleaved DNA Average: 65.2533%
E. coli gyrase GyrA^V70A; albicidin 10 µM
  % cleaved DNA Average: 79.6585%
E. coli gyrase GyrA^V70A; albicidin 50 µM
  % cleaved DNA Average: 77.0866%
E. coli gyrase GyrA^A67Q; 1 h
  increase in CC50: more than 10 fold
E. coli gyrase GyrA^A67Q
  % maximal cleavage: 83±1%
  EC50: 610 ± 124 nM
E. coli gyrase GyrA^A67Q; albicidin 0.01 µM
  % cleaved DNA Average: 3.538%
E. coli gyrase GyrA^A67Q; albicidin 0.025 µM
  % cleaved DNA Average: 4.787%
E. coli gyrase GyrA^A67Q; albicidin 0.05 µM
  % cleaved DNA Average: 6.475%
E. coli gyrase GyrA^A67Q; albicidin 0.1 µM
  % cleaved DNA Average: 6.201%
E. coli gyrase GyrA^A67Q; albicidin 0.25 µM
  % cleaved DNA Average: 17.9877%
E. coli gyrase GyrA^A67Q; albicidin 0.5 µM
  % cleaved DNA Average: 34.7807%
E. coli gyrase GyrA^A67Q; albicidin 1 µM
  % cleaved DNA Average: 60.5747%
E. coli gyrase GyrA^A67Q; albicidin 5 µM
  % cleaved DNA Average: 76.5607%
E. coli gyrase GyrA^A67Q; albicidin 10 µM
  % cleaved DNA Average: 82.9213%
E. coli gyrase GyrA^A67Q; albicidin 25 µM
  % cleaved DNA Average: 77.2008%
E. coli gyrase GyrA^A67Q; albicidin 50 µM
  % cleaved DNA Average: 74.453%
E. coli Topo IV
  concentration required for full inhibition of Topo IV relaxation activity: 100 µM

## CC(C)Oc1c(NC(=O)c2ccc(NC(=O)[C@H](Cc3c[nH]nn3)NC(=O)c3ccc(NC(=O)c4ccc(C#N)cc4)cn3)cn2)ccc(C(=O)Nc2ccc(C(=O)O)cc2)c1O [Albi-1]
E. coli gyrase GyrA^S83L
  % maximal cleavage: 80±14%
  EC50: 10 ± 1.5 nM
[1]
  % maximal cleavage: 68±3%
  EC50: 15 ± 1.5 nM
[2]
  % maximal cleavage: 83±3%
  EC50: 412 ± 88 nM
[2]; GyrB^K447W vs WT gyrase
  increase in CC50: more than 50 fold
E. coli gyrase GyrA^V70A
  % maximal cleavage: 90±2%
E. coli gyrase GyrA^V70A; mean ± s.d. of triplicate
  EC50: 16 ± 1.3 nM
E. coli gyrase GyrA^A67Q
  % maximal cleavage: 96±8%
  EC50: 181 ± 67 nM
E. coli Topo IV
  concentration required for full inhibition of Topo IV relaxation activity: 10 µM

Reference: paper PMC9886550, “Molecular mechanism of topoisomerase poisoning by the peptide antibiotic albicidin” (Nature Catalysis, 2023)
